Results taken from patent US10913742B2, “Oxadiazolones as transient receptor potential channel inhibitors” (Genentech, Inc., priority 2017, dated 2021).

The compounds below were run against human TRPA1 (Homo sapiens (Human), UniProt O75762) (assay: hTRPA1 CHO Ca2+ FLIPR assay (block of cinnamaldehyde induced calcium influx)). Settings: CHO cells expressing TRPA1; 75 uM cinnamaldehyde; Hill coefficient fixed to 1.5; read-out: hTRPA1 (hTRPA1 CHO Ca2+ MAX EVO (IC50)).
human TRPA1, sequence (O75762 whole entry): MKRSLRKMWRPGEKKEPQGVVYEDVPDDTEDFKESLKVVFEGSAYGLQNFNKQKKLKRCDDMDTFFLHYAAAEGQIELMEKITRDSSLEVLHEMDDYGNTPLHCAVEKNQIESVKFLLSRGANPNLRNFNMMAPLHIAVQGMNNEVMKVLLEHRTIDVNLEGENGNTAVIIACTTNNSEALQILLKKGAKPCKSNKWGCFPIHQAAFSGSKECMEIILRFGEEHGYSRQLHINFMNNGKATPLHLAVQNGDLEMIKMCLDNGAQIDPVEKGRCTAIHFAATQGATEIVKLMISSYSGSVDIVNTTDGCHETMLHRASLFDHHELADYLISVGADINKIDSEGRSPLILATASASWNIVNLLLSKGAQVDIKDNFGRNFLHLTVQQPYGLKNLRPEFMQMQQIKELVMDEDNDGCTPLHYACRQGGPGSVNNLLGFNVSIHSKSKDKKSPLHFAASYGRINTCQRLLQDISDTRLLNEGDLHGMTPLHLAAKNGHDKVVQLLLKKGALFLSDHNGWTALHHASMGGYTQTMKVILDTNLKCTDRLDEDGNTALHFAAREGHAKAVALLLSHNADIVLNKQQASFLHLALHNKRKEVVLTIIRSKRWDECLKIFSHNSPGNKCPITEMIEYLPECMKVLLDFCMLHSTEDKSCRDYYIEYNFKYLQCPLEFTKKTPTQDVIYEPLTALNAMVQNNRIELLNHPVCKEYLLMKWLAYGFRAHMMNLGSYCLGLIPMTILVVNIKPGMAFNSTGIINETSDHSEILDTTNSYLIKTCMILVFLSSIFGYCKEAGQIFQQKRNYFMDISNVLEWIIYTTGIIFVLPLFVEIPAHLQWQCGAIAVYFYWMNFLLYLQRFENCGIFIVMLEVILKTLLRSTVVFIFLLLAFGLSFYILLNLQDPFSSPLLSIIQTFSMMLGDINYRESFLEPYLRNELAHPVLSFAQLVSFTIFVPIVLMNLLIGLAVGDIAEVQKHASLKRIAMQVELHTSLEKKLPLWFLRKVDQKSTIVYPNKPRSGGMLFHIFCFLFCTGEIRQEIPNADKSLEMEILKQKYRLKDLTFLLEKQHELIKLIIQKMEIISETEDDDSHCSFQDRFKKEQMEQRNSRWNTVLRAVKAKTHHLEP
Type: cell-based
Procedure: CHO cells expressing TRPA1 were plated into 384-well plates, incubated overnight at 37° C., and loaded with BD calcium indicator dye for 1 hr at 37° C. followed by 15 minutes at room temperature. The assay buffer was Hank's Balanced Salt Solution (HBSS) containing 20 mM HEPES (pH readjusted to 7.4) along with 0.02% BSA.
Following dye load and plate cool down, compounds were added to the cells using FLIPR Tetra. Plates were then incubated with compounds for 20 minutes at room temperature prior to adding agonist.
The IC50 results were fit with a standard Hill function, keeping the Hill coefficient (n) fixed to 1.5. Fixing the Hill coefficient will generally reduce variability of the IC50 determination. The IC50 results were individually examined to make sure the MIN and MAX points were set correctly prior to validation of the results.
Compound `Cc1ccnc2ncn(Cc3nn([C@@H]4CC[C@@H](c5ccc(F)cc5)C4)c(=O)o3)c(=O)c12` (racemic) [compound 67, 5-[(5-methyl-4-oxo-pyrido[2,3-d]pyrimidin-3-yl)methyl]-3-[rac-(1R,3R)-3-(4-fluorophenyl)cyclopentyl]-1,3,4-oxadiazol-2-one] has an IC50 of 4.76 nM.
With `Cn1cnc2ncn(Cc3nn([C@@H]4CC[C@@H](c5cccc(F)c5)C4)c(=O)o3)c(=O)c21` (racemic) [compound 76, 5-[(7-methyl-6-oxo-purin-1-yl)methyl]-3-[rac-(1R,3R)-3-(3-fluorophenyl)cyclopentyl]-1,3,4-oxadiazol-2-one] the IC50 was 75.8 nM.
`O=c1c2cccnc2ncn1Cc1nn([C@@H]2CC[C@@H](c3ccc(F)cc3)C2)c(=O)o1` (racemic) [compound 78, 5-[(4-oxopyrido[2,3-d]pyrimidin-3-yl)methyl]-3-[rac-(1R,3R)-3-(4-fluorophenyl)cyclopentyl]-1,3,4-oxadiazol-2-one] showed an IC50 of 40.6 nM.
With `Cc1ccnc2ncn(Cc3nn(C[C@H](F)c4ccc(OC(F)F)cc4)c(=O)o3)c(=O)c12` (racemic) [compound 80, 5-[(5-methyl-4-oxo-pyrido[2,3-d]pyrimidin-3-yl)methyl]-3-[rac-(2R)-2-[4-(difluoromethoxy)phenyl]-2-fluoro-ethyl]-1,3,4-oxadiazol-2-one] the IC50 was 11.9 nM.
`O=c1c2cccnc2ncn1Cc1nn(C[C@H](F)c2ccc(OC(F)F)cc2)c(=O)o1` (racemic) [compound 81, 5-[(4-oxopyrido[2,3-d]pyrimidin-3-yl)methyl]-3-[rac-(2R)-2-[4-(difluoromethoxy)phenyl]-2-fluoro-ethyl]-1,3,4-oxadiazol-2-one] gave an IC50 of 50 nM.
Work on `Cn1cnc2ncn(Cc3nn([C@@H]4C[C@@H](F)[C@@H](c5ccc(Cl)cc5)C4)c(=O)o3)c(=O)c21` (racemic) [compound 82, 5-[(7-methyl-6-oxo-purin-1-yl)methyl]-3-[rac-(1S,3R,4R)-3-(4-chlorophenyl)-4-fluoro-cyclopentyl]-1,3,4-oxadiazol-2-one] yielded an IC50 of 43.9 nM.
`Cn1cnc2ncn(Cc3nn(C[C@H](F)c4cccc(Cl)c4)c(=O)o3)c(=O)c21` (racemic) [compound 84, 5-[(7-methyl-6-oxo-purin-1-yl)methyl]-3-[rac-(2R)-2-(3-chlorophenyl)-2-fluoro-ethyl]-1,3,4-oxadiazol-2-one] gave an IC50 of 166 nM.
Work on `Cn1c(=O)ccc2ncn(Cc3nn(C[C@H](F)c4ccc(Cl)cc4)c(=O)o3)c(=O)c21` (racemic) [compound 87, 5-methyl-3-[[5-oxo-4-[rac-(2R)-2-(4-chlorophenyl)-2-fluoro-ethyl]-1,3,4-oxadiazol-2-yl]methyl]pyrido[3,2-d]pyrimidine-4,6-dione] yielded an IC50 of 43.8 nM.
Compound `O=c1c2cccnc2ncn1Cc1nn(C[C@H](F)c2ccc(Cl)cc2)c(=O)o1` (racemic) [compound 95, 5-[(4-oxopyrido[2,3-d]pyrimidin-3-yl)methyl]-3-[rac-(2R)-2-(4-chlorophenyl)-2-fluoro-ethyl]-1,3,4-oxadiazol-2-one] has an IC50 of 48.5 nM.
For `Cn1cnc2ncn(Cc3nn([C@@H]4CC[C@@H](c5cccc(Cl)c5)C4)c(=O)o3)c(=O)c21` (racemic) [compound 101, 5-[(7-methyl-6-oxo-purin-1-yl)methyl]-3-[rac-(1R,3R)-3-(3-chlorophenyl)cyclopentyl]-1,3,4-oxadiazol-2-one], the IC50 was 36.1 nM.
For `Cn1cnc2ncn(Cc3nn([C@H]4CC[C@H](c5ccccc5)C4)c(=O)o3)c(=O)c21` (racemic) [compound 108, 5-[(7-methyl-6-oxo-purin-1-yl)methyl]-3-[rac-(1S,3S)-3-phenylcyclopentyl]-1,3,4-oxadiazol-2-one], the IC50 was 156 nM.
`Cn1cnc2ncn(Cc3nn(C[C@H](F)c4ccc(OC(F)(F)F)cc4)c(=O)o3)c(=O)c21` (racemic) [compound 109, 5-[(7-methyl-6-oxo-purin-1-yl)methyl]-3-[rac-(2R)-2-fluoro-2-[4-(trifluoromethoxy)phenyl]ethyl]-1,3,4-oxadiazol-2-one] was tested, and the IC50 was 19.1 nM.
`Cn1cnc2ncn(Cc3nn(C[C@H](F)c4ccc(OC(F)F)cc4)c(=O)o3)c(=O)c21` (racemic) [compound 110, 5-[(7-methyl-6-oxo-purin-1-yl)methyl]-3-[rac-(2R)-2-[4-(difluoromethoxy)phenyl]-2-fluoro-ethyl]-1,3,4-oxadiazol-2-one] gave an IC50 of 81.3 nM.
In the case of `Cc1ccnc2ncn(Cc3nn(CC(F)c4ccc(Cl)cc4)c(=O)o3)c(=O)c12` (stereo in doubt) [compound 33, 5-[(5-methyl-4-oxo-pyrido[2,3-d]pyrimidin-3-yl)methyl]-3-[(2R)-2-(4-chlorophenyl)-2-fluoro-ethyl]-1,3,4-oxadiazol-2-one], the IC50 is reported as 180 nM.
Work on `Cc1ccnc2ncn(Cc3nn(CC(F)c4ccc(Cl)cc4)c(=O)o3)c(=O)c12` (stereo in doubt) [compound 34, 5-[(5-methyl-4-oxo-pyrido[2,3-d]pyrimidin-3-yl)methyl]-3-[(2S)-2-(4-chlorophenyl)-2-fluoro-ethyl]-1,3,4-oxadiazol-2-one] yielded an IC50 of 5 nM.
`Cn1cnc2ncn(Cc3nn(CC(F)c4ccc5ccccc5c4)c(=O)o3)c(=O)c21` (stereo in doubt) [compound 38, 5-[(7-methyl-6-oxo-purin-1-yl)methyl]-3-[(2S)-2-fluoro-2-(2-naphthyl)ethyl]-1,3,4-oxadiazol-2-one] gave an IC50 of 7 nM.
`Cn1cnc2ncn(Cc3nn(CCc4ccc(Cl)cc4)c(=O)o3)c(=O)c21` [compound 1, 3-[2-(4-chlorophenyl)ethyl]-5-[(7-methyl-6-oxo-purin-1-yl)methyl]-1,3,4-oxadiazol-2-one] showed an IC50 of 95 nM.
`Cn1cnc2ncn(Cc3nn(CCc4ccc(OC(F)F)cc4)c(=O)o3)c(=O)c21` [compound 2, 3-(4-(difluoromethoxy)phenethyl)-5-((7-methyl-6-oxo-6H-purin-1(7H)-yl)methyl)-1,3,4-oxadiazol-2(3H)-one] was tested, and the IC50 was 211 nM.
Work on `Cn1cnc2ncn(Cc3nn(CCc4ccc(Br)cc4)c(=O)o3)c(=O)c21` [compound 3, 3-(4-bromophenethyl)-5-((7-methyl-6-oxo-6H-purin-1(7H)-yl)methyl)-1,3,4-oxadiazol-2(3H)-one] yielded an IC50 of 44 nM.
For `Cn1cnc2ncn(Cc3nn(CCc4ccccc4)c(=O)o3)c(=O)c21` [compound 4, 5-((7-methyl-6-oxo-6H-purin-1(7H)-yl)methyl)-3-phenethyl-1,3,4-oxadiazol-2(3H)-one], the IC50 was 1060 nM.
`Cn1cnc2ncn(Cc3nn(CCc4ccc(C#N)cc4)c(=O)o3)c(=O)c21` [compound 5, 4-(2-(5-((7-methyl-6-oxo-6H-purin-1(7H)-yl)methyl)-2-oxo-1,3,4-oxadiazol-3(2H)-yl)ethyl)benzonitrile] showed an IC50 of 1170 nM.
`Cc1cncc2ncn(Cc3nn(CCc4ccc(Cl)cc4)c(=O)o3)c(=O)c12` [compound 6, 3-(4-chlorophenethyl)-5-((5-methyl-4-oxopyrido[3,4-d]pyrimidin-3(4H)-yl)methyl)-1,3,4-oxadiazol-2(3H)-one] gave an IC50 of 13 nM.
In the case of `Cc1ccnc2ncn(Cc3nn(CCc4ccc(Cl)cc4)c(=O)o3)c(=O)c12` [compound 7, 3-[2-(4-chlorophenyl)ethyl]-5-[(5-methyl-4-oxo-pyrido[2,3-d]pyrimidin-3-yl)methyl]-1,3,4-oxadiazol-2-one], the IC50 is reported as 12 nM.
`Cc1ccnc2ncn(Cc3nn(CCc4ccc(C#N)cc4)c(=O)o3)c(=O)c12` [compound 8, 4-[2-[5-[(5-methyl-4-oxo-pyrido[2,3-d]pyrimidin-3-yl)methyl]-2-oxo-1,3,4-oxadiazol-3-yl]ethyl]benzonitrile] gave an IC50 of 166 nM.
Work on `Cn1cnc2ncn(Cc3nn(CCc4ccc(C(F)(F)F)cc4)c(=O)o3)c(=O)c21` [compound 9, 5-((7-methyl-6-oxo-6H-purin-1(7H)-yl)methyl)-3-(4-(trifluoromethyl)phenethyl)-1,3,4-oxadiazol-2(3H)-one] yielded an IC50 of 582 nM.
`Cn1cnc2ncn(Cc3nn(CCc4ccc(OC(F)(F)F)cc4)c(=O)o3)c(=O)c21` [compound 10, 5-((7-methyl-6-oxo-6H-purin-1(7H)-yl)methyl)-3-(4-(trifluoromethoxy)phenethyl)-1,3,4-oxadiazol-2(3H)-one] was tested, and the IC50 was 86 nM.
For `COc1ccc(CCn2nc(Cn3cnc4ncn(C)c4c3=O)oc2=O)cc1` [compound 11, 3-(4-methoxyphenethyl)-5-((7-methyl-6-oxo-6H-purin-1(7H)-yl)methyl)-1,3,4-oxadiazol-2(3H)-one], the IC50 was 278 nM.
Compound `Cn1cnc2ncn(Cc3nn(CCc4ccc5ccccc5c4)c(=O)o3)c(=O)c21` [compound 12, 5-((7-methyl-6-oxo-6H-purin-1(7H)-yl)methyl)-3-(2-(naphthalen-2-yl)ethyl)-1,3,4-oxadiazol-2(3H)-one] has an IC50 of 41 nM.
For `Cc1nc(C)n2ncn(Cc3nn(CCc4ccc(Cl)cc4)c(=O)o3)c(=O)c12` [compound 13, 3-(4-chlorophenethyl)-5-((5,7-dimethyl-4-oxoimidazo[1,5-f][1,2,4]triazin-3(4H)-yl)methyl)-1,3,4-oxadiazol-2(3H)-one], the IC50 was 265 nM.
`Cn1cnc2ncn(Cc3nn(C[C@H](F)c4ccc(Cl)cc4)c(=O)o3)c(=O)c21` [compound 14, (R)-3-(2-(4-chlorophenyl)-2-fluoroethyl)-5-((7-methyl-6-oxo-6H-purin-1(7H)-yl)methyl)-1,3,4-oxadiazol-2(3H)-one] was tested, and the IC50 was 34 nM.
In the case of `Cn1cnc2ncn(Cc3nn(C[C@@H](F)c4ccc(Cl)cc4)c(=O)o3)c(=O)c21` [compound 15, (S)-3-(2-(4-chlorophenyl)-2-fluoroethyl)-5-((7-methyl-6-oxo-6H-purin-1(7H)-yl)methyl)-1,3,4-oxadiazol-2(3H)-one], the IC50 is reported as 3830 nM.
`Cn1cnc2ncn(Cc3nn(CCc4ccc(C5CC5)cc4)c(=O)o3)c(=O)c21` [compound 16, 3-(4-cyclopropylphenethyl)-5-((7-methyl-6-oxo-6H-purin-1(7H)-yl)methyl)-1,3,4-oxadiazol-2(3H)-one] showed an IC50 of 356 nM.
